Measurements as given in US12660819B2, “Herbicidal derivatives” (SYNGENTA CROP PROTECTION AG, priority 2020, dated 2026).

Experiments:
Type in all cases: in vivo
[1] = system: Ipomoea hederacea (IPOHE); experiment: Post-emergence Test (glasshouse, percentage damage to the plant); conditions: 1000 g/ha unless otherwise stated, evaluated after 13 days; for Post-emergence Test IPOHE, percentage damage to the plant (five-point scale): post-emergence spray
Description: (§1) Seeds of a variety of test species are sown in standard soil in pots (Amaranthus retoflexus (AMARE), Solanum nigrum (SOLNI), Setaria faberi (SETFA), Lolium perenne (LOLPE), Echinochloa crus-galli (ECHCG), Ipomoea hederacea (IPOHE), Abutilon theophrasti (ABUTH), Zea mays (ZEAMX), Amaranthus palmeri (AMAPA). After 8 days cultivation under controlled conditions in a glasshouse (at 24° C./16° C., day/night; 14 hours light; 65% humidity), the plants are sprayed with an aqueous spray solution derived from the formulation of the technical active ingredient in acetone/water (50:50) solution containing 0.5% Tween 20 (polyoxyethelyene sorbitan monolaurate, CAS RN 9005-64-5). Compounds are applied at 1000 g/ha unless otherwise stated. The test plants are then grown in a glasshouse under controlled conditions in a glasshouse (at 24° C./16° C., day/night; 14 hours light; 65% humidity) and watered twice daily. After 13 days the test is evaluated for the percentage damage caused to the plant. The biological activities are shown in the following table on a five-point scale (5=81-100%; 4=61-80%; 3=41-60%; 2=21-40%; 1=0-20%).

[2] = system: Amaranthus retoflexus (AMARE); experiment: as above; conditions: 1000 g/ha unless otherwise stated, evaluated after 13 days; for Post-emergence Test AMARE, percentage damage to the plant (five-point scale): post-emergence spray
Description: as §1

[3] = system: Zea mays (ZEAMX); experiment: as above; conditions: 1000 g/ha unless otherwise stated, evaluated after 13 days; for Post-emergence Test ZEAMX, percentage damage to the plant (five-point scale): post-emergence spray
Description: as §1

[4] = system: Setaria faberi (SETFA); experiment: as above; conditions: 1000 g/ha unless otherwise stated, evaluated after 13 days; for Post-emergence Test SETFA, percentage damage to the plant (five-point scale): post-emergence spray
Description: as §1

[5] = system: Zea mays (ZEAMX); experiment: Pre-emergence Test (glasshouse, percentage damage to the plant); conditions: 1000 g/ha unless otherwise stated; for percentage damage to the plant, ZEAMX: five-point scale
[6] = system: Amaranthus retoflexus (AMARE); experiment: as above; conditions: 1000 g/ha unless otherwise stated; for percentage damage to the plant, AMARE: five-point scale
[7] = system: Abutilon theophrasti (ABUTH); experiment: as above; conditions: 1000 g/ha unless otherwise stated; for percentage damage to the plant, ABUTH: five-point scale
[8] = system: Setaria faberi (SETFA); experiment: as above; conditions: 1000 g/ha unless otherwise stated; for percentage damage to the plant, SETFA: five-point scale
[9] = system: Ipomoea hederacea (IPOHE); experiment: as above; conditions: 1000 g/ha unless otherwise stated; for percentage damage to the plant, IPOHE: five-point scale
[10] = system: Echinochloa crus-galli (ECHCG); experiment: as above; conditions: 1000 g/ha unless otherwise stated; for percentage damage to the plant, ECHCG: five-point scale

Row | SMILES | Post-emergence Test IPOHE, percentage damage to the plant (five-point scale) [1] | Post-emergence Test AMARE, percentage damage to the plant (five-point scale) [2] | Post-emergence Test ZEAMX, percentage damage to the plant (five-point scale) [3] | Post-emergence Test SETFA, percentage damage to the plant (five-point scale) [4] | percentage damage to the plant, ZEAMX [5] | percentage damage to the plant, AMARE [6] | percentage damage to the plant, ABUTH [7] | percentage damage to the plant, SETFA [8] | percentage damage to the plant, IPOHE [9] | percentage damage to the plant, ECHCG [10] | IPOHE, percentage damage caused to the plant (five-point scale) ([1]; post-emergence) | AMARE, percentage damage caused to the plant (five-point scale) ([2]; post-emergence) | ZEAMX, percentage damage caused to the plant (five-point scale) ([3]; post-emergence) | SETFA, percentage damage caused to the plant (five-point scale) ([4]; post-emergence) | percentage damage to the plant, ZEAMX (five-point scale) ([5]; Zea mays) | percentage damage to the plant, AMARE (five-point scale) ([6]; Amaranthus retoflexus) | percentage damage to the plant, ABUTH (five-point scale) ([7]; Abutilon theophrasti) | percentage damage to the plant, SETFA (five-point scale) ([8]; Setaria faberi) | percentage damage to the plant, IPOHE (five-point scale) ([9]; Ipomoea hederacea) | percentage damage to the plant, ECHCG (five-point scale) ([10]; Echinochloa crus-galli)
1 | CCn1c(C)c(-c2cc(F)cc(C#N)c2)c(=O)c(C(=O)O)c1-c1ccc(Cl)cc1 [Compound 190, 2-(4-chlorophenyl)-5-(3-cyano-5-fluoro-phenyl)-1-ethyl-6-methyl-4-oxo-pyridine-3-carboxylic acid] | 1 (1=0-20%) | 1 (1=0-20%) | 1 (1=0-20%) | 2 (2=21-40%) | 2 (2=21-40%) | 1 (1=0-20%) | 0 | 2 (2=21-40%) | 1 (1=0-20%) | 2 (2=21-40%) | – | – | – | – | – | – | – | – | – | –
2 | CCn1c(C)c(-c2ccc(C#N)c(C(F)(F)F)c2)c(=O)c(C(=O)O)c1-c1ccc(Cl)cc1 [Compound 187, 2-(4-chlorophenyl)-5-[4-cyano-3-(trifluoromethyl)phenyl]-1-ethyl-6-methyl-4-oxo-pyridine-3-carboxylic acid] | 3 (3=41-60%) | 3 (3=41-60%) | 2 (2=21-40%) | 2 (2=21-40%) | 1 (1=0-20%) | 1 (1=0-20%) | 3 (3=41-60%) | 2 (2=21-40%) | 2 (2=21-40%) | 1 (1=0-20%) | – | – | – | – | – | – | – | – | – | –
3 | CCn1c(C)c(-c2cc(F)c(F)c(F)c2)c(=O)c(C(=O)O)c1-c1ccc(Cl)cc1 [Compound 200, 2-(4-chlorophenyl)-1-ethyl-6-methyl-4-oxo-5-(3,4,5-trifluorophenyl)pyridine-3-carboxylic acid] | – | – | – | – | – | – | – | – | – | – | 3 (3=41-60%) | 1 (1=0-20%) | 2 (2=21-40%) | 3 (3=41-60%) | 0 | 0 | 3 (3=41-60%) | 2 (2=21-40%) | 2 (2=21-40%) | 3 (3=41-60%)
4 | CCn1c(C)c(-c2ccc(C(F)(F)F)c(Cl)c2)c(=O)c(C(=O)O)c1-c1ccc(Cl)cc1 [Compound 170, 2-(4-chlorophenyl)-5-[3-chloro-4-(trifluoromethyl)phenyl]-1-ethyl-6-methyl-4-oxo-pyridine-3-carboxylic acid] | 3 (3=41-60%) | 5 (5=81-100%) | 2 (2=21-40%) | 1 (1=0-20%) | 0 | 1 (1=0-20%) | 0 | 0 | 0 | 0 | – | – | – | – | – | – | – | – | – | –
5 | CCn1c(C)c(-c2cccc(C(F)(F)F)c2F)c(=O)c(C(=O)O)c1-c1ccc(Cl)cc1 [Compound 181, 2-(4-chlorophenyl)-1-ethyl-5-[2-fluoro-3-(trifluoromethyl)phenyl]-6-methyl-4-oxo-pyridine-3-carboxylic acid] | 2 (2=21-40%) | 3 (3=41-60%) | 1 (1=0-20%) | 3 (3=41-60%) | 2 (2=21-40%) | 1 (1=0-20%) | 4 (4=61-80%) | 5 (5=81-100%) | 4 (4=61-80%) | 4 (4=61-80%) | – | – | – | – | – | – | – | – | – | –
6 | CCn1c(C)c(-c2cc(OC)ccc2F)c(=O)c(C(=O)O)c1-c1ccc(Cl)cc1 [Compound 189, 2-(4-chlorophenyl)-1-ethyl-5-(2-fluoro-5-methoxy-phenyl)-6-methyl-4-oxo-pyridine-3-carboxylic acid] | 1 (1=0-20%) | 2 (2=21-40%) | 1 (1=0-20%) | 2 (2=21-40%) | 0 | 1 (1=0-20%) | 3 (3=41-60%) | 2 (2=21-40%) | 1 (1=0-20%) | 2 (2=21-40%) | – | – | – | – | – | – | – | – | – | –
7 | CCn1c(C)c(-c2cc(Cl)cc(Cl)c2)c(=O)c(C(=O)O)c1-c1ccc(Cl)cc1 [Compound 188, 2-(4-chlorophenyl)-5-(3,5-dichlorophenyl)-1-ethyl-6-methyl-4-oxo-pyridine-3-carboxylic acid] | 1 (1=0-20%) | 0 | 1 (1=0-20%) | 0 | 0 | 0 | 0 | 0 | 0 | 0 | – | – | – | – | – | – | – | – | – | –
8 | CCn1c(C)c(-c2ccc([N+](=O)[O-])cc2)c(=O)c(C(=O)O)c1-c1ccc(Cl)cc1 [Compound 194, 2-(4-chlorophenyl)-1-ethyl-6-methyl-5-(4-nitrophenyl)-4-oxo-pyridine-3-carboxylic acid] | 0 | 0 | 1 (1=0-20%) | 2 (2=21-40%) | 2 (2=21-40%) | 0 | 0 | 0 | 0 | 0 | – | – | – | – | – | – | – | – | – | –
9 | CCn1c(C)c(-c2ccc(F)cc2OC)c(=O)c(C(=O)O)c1-c1ccc(Cl)cc1 [Compound 186, 2-(4-chlorophenyl)-1-ethyl-5-(4-fluoro-2-methoxy-phenyl)-6-methyl-4-oxo-pyridine-3-carboxylic acid] | 2 (2=21-40%) | 1 (1=0-20%) | 2 (2=21-40%) | 3 (3=41-60%) | 0 | 1 (1=0-20%) | 3 (3=41-60%) | 2 (2=21-40%) | 1 (1=0-20%) | 1 (1=0-20%) | – | – | – | – | – | – | – | – | – | –
10 | CCn1c(C)c(-c2cc(C)c(Cl)c(C)c2)c(=O)c(C(=O)O)c1-c1ccc(Cl)cc1 [Compound 197, 5-(4-chloro-3,5-dimethyl-phenyl)-2-(4-chlorophenyl)-1-ethyl-6-methyl-4-oxo-pyridine-3-carboxylic acid] | 2 (2=21-40%) | 1 (1=0-20%) | 1 (1=0-20%) | 1 (1=0-20%) | 0 | 0 | 0 | 0 | 0 | 0 | – | – | – | – | – | – | – | – | – | –
